Reference: patent US8709303B2, “Dielectric insulation medium” (ABB Research Ltd., priority 2010, dated 2014)

What was measured:
[1] = products include I2; cited from earlier work
[2] = risk for human toxicity, concluded from mammalian HFC tests; conditions: concluded from available results of mammalian HFC tests
Description: This can be concluded from the available results of mammalian HFC (hydrofluorocarbon) tests. Also, information available on commercial hydrofluoro monoethers give no evidence of carcinogenicity, mutagenicity, reproductive/developmental effect and other chronic effects of the compounds of the present application.

thermal stability = conditions: 175° C. for 30 days

SMILES	temperature at which decomposition into hazardous products starts [1]	risk for human toxicity [2]	thermal stability (thermal stability)
FC(F)(F)I [CF3I, trifluoroiodomethane (CF3I)]	around 100 °C		
COC(F)(F)C(F)(F)F [pentafluoro-ethyl-methyl ether, pentafluoro-ethyl-methyl ether (CH3—O—CF2CF3)]		low risk for human toxicity	thermally stable
FC(F)(F)COC(F)(F)F [2,2,2-trifluoroethyl-trifluoromethyl ether (CF3—O—CH2CF3)]		low risk for human toxicity	
